Assays:
[1] = system: BT474 cells; test: XTT Cell Proliferation Assay, growth rate of BT474 cells in vitro; format: cell-based, Human; conditions: knockdown cells vs control, no drug
Protocol: FIG. 5. CUL4B inactivation sensitized BT474 xenograft tumors to topotecan. Stable TGL-BT474 cells (BT474 cells stably expressing GFP-luciferase reporter) were established by retroviral transduction and FACS sorting. The resulting TGL-BT474 cells were infected with recombinant lentiviruses expressing non-targeting shCtrl, shCUL4A or shCUL4B, followed by selection of infected cells with 4 μg/ml puromycine for one week. A) Knockdown of endogenous CUL4A and 4B were verified by immunoblotting. […] Statistical significance in tumor burden between control and CUL4A^k/d or CUL4B^k/d xenograph are assessed by a two-tailed unpaired student t-test (***: p<0.001). […] The same number of control, CUL4A^k/d and CUL4B^k/d BT474 cells were seeded to 96-well plates and cell proliferation was measured using the XTT Cell Proliferation Assay Kit. […] Statistical significance in cellular rate between control cells and CUL4A^k/d or CUL4B^k/d cells are assessed by student's t-test. […] 1×10^7 of control, CUL4A^k/d or CUL4B^k/d TGL-BT474 cells were injected subcutaneously in the right flank of each mouse of athymic Nu/J nude mice, and tumor burden was measured by bioluminescent imaging (E). On the 22nd day, tumors were collected, and the weight of exercised tumors was measured after mice were sacrificed (F).

[2] = system: BT474 cells; test: XTT assay for cytotoxic response to camptothecin, BT474; format: cell-based, Human
Protocol: FIG. 2. CUL4B interacted with Top1 and induced Top1 degradation in the presence of CPT. A) Knockdown of CUL4B impaired CPT-induced Top1 degradation. BT474 cells were infected with lentiviral shCUL4B, shCUL4A or control non-targeting shRNA, and selected for stable CUL4B^k/d or CUL4A^k/d cells upon treatment with puromycin. Following treatment with CPT (50 μM) for 1 hour, cells were replenished with CPT-free fresh medium and incubated at 37° C. for 30 minutes. Top1 degradation was assessed by immunoblotting with an anti-Top1 antibody. Levels of α-tubulin were measured as a loading control. B) Association of CUL4B with Top1 following CPT treatment. […] Top1 degradation was assessed by immunoblotting with the anti-Top1 antibody. Levels of α-tubulin were measured as a loading control. […] Statistical significance in cellular response to CPT between control BT474 cells and CUL4A^k/d or CUL4B^k/d cells were assessed by a two-tailed unpaired student t-test (***: p<0.001). […] Statistical significance in cellular response to camptothecin between control cells and CUL4A^k/d or CUL4B^k/d BT474 cells are assessed by student's t-test.
Synchronized cells were seeded into 96-well microplates. […] The optical density was measured with a microplate reader. […] Data were expressed as the mean±S.E. Difference in the survival ratios between the two cell lines at each concentration point was assessed by the student's T test. […]

| Compound | Growth rate of cultured BT474 cells in vitro [1] | Survival rate of CPT-treated cells ([2]; BT474 cells with knockdown of CUL4A) | Cytotoxic killing by CPT (cell survival) ([2]; BT474 cells with knockdown of CUL4B, CPT three days) |
| --- | --- | --- | --- |
| shCUL4B: lentiviral shRNA CUL4B sequence purchased from Sigma Aldrich, reduces CUL4B expression (CCGGGCAGAATTTAAAGAGGGTAAACTCGAGTTTACCCTCTTTAAATTCTGCTTTTT) | no effect | – | – |
| CC[C@@]1(O)C(=O)OCc2c1cc1n(c2=O)Cc2cc3ccccc3nc2-1 [CPT, (S)-4-ethyl-4-hydroxy-1H-pyrano[3′,4′:6,7]indolizino[1,2-b]quinoline-3,14-(4H, 12H)-dione] | – | no effect | sensitized |

— patent US10106853B2, “CUL4B as predictive biomarker for cancer treatment” (CORNELL UNIVERSITY, priority 2012, dated 2018)
